Results taken from ChEMBL document CHEMBL3779803, “α-Glucosidase Inhibitory Prenylated Anthranols from Harungana madagascariensis” (J Nat Prod, 2016).

How the values were obtained:
Saccharomyces cerevisiae = test: Inhibition of Saccharomyces cerevisiae alpha-glucosidase at 5 uM using p-nitrophenyl-alpha-D-glucoside as substrate measured for 40 mins by spectrophotometric analysis
[1] = Inhibition of Saccharomyces cerevisiae alpha-glucosidase using p-nitrophenyl-alpha-D-glucoside as substrate measured for 40 mins by spectrophotometric analysis

SMILES | inhibition (Saccharomyces cerevisiae) [%] | IC50 [1] [µM]
Cc1cc(O)c2c3c1[C@H](O)[C@@H]1O[C@]3(OC1(C)C)c1c3c(cc(O)c1C2=O)O[C@@H](C(C)(C)O)C3 |  | 117
CC(C)=CCc1c(C)cc(O)c2c1[C@@H](O)c1c3c(cc(O)c1C2=O)O[C@@H](C(C)(C)O)C3 |  | 207
C[C@@H]1O[C@@H](O[C@@H]2[C@@H](O)[C@H](O)[C@H](O[C@H]3[C@H](O)[C@@H](O)C(O)O[C@@H]3CO)O[C@H]2CO)[C@@H](O)[C@H](O)[C@H]1N[C@H]1C=C(CO)[C@@H](O)[C@H](O)[C@H]1O (stereo partly drawn) |  | 120
CC(C)=CCc1c(C)cc(O)c2c1[C@@H](O)c1c3c(cc(O)c1C2=O)OC(C)(C)[C@@H](O)C3 |  | 36.9

Other lines, results leading:

inhibition (Saccharomyces cerevisiae) [%] | IC50 [1] [µM] | SMILES
47 |  | CC(C)=CCc1c(C)cc2cc3c(c(O)c2c1O)C(=O)C=C(O)C3(CC=C(C)C)CC=C(C)C
 | 1.2 | CC(C)=CCc1c(C)cc2cc3c(c(O)c2c1O)C(=O)C(CC1=C(O)C(CC=C(C)C)(CC=C(C)C)c2cc4cc(C)c(CC=C(C)C)c(O)c4c(O)c2C1=O)=C(O)C3(CC=C(C)C)CC=C(C)C
 | 37.7 | CC(C)=CCc1c(C)cc(O)c2c(O)c3c(cc12)C(CC=C(C)C)(CC=C(C)C)C(O)=CC3=O [HARUNGANIN]
 | 44.1 | CC(C)=CCc1c(C)cc(O)c2c1C(O)c1c(CC=C(C)C)c(O)cc(O)c1C2=O (stereo not drawn)
